Measured values reported in ChEMBL document CHEMBL1142758, “Neuroprotective effects of naturally occurring biflavonoids” (2005).

Columns and labels:
Format in all cases: functional
[1] = Protective effect of compound on SNP-induced cell death in SH-SY5Y cells (concentration = 10 uM)
[2] = Protective effect of compound on SNP-induced cell death in SH-SY5Y cells (concentration = 0.4 uM)
[3] = Protective effect of compound on hydrogen peroxide-induced cell death in SH-SY5Y cells (concentration = 0.4 uM)
[4] = Protective effect of compound on hydrogen peroxide-induced cell death in SH-SY5Y cells (concentration = 2 uM)
[5] = Protective effect of compound on Ab25 35-induced cell death in SH-SY5Y cells (concentration = 4 uM)
[6] = Protective effect of compound on Ab25 35-induced cell death in SH-SY5Y cells (concentration = 0.2 uM)
[7] = Protective effect of compound on Ab25 35-induced cell death in SH-SY5Y cells (concentration = 10 uM)
[8] = Protective effect of compound on hydrogen peroxide-induced cell death in SH-SY5Y cells (concentration = 10 uM)
[9] = Protective effect of compound on SNP-induced cell death in SH-SY5Y cells (concentration = 2 uM)
[10] = Protective effect of compound on compounds on SNP-induced cell death in SH-SY5Y cells (concentration = 0.4 uM)
[11] = Protective effect of test compound on Ab25 35-induced cell death in SH-SY5Y cells (concentration = 0.2 uM)
[12] = Protective effect of test compound on SNP-induced cell death in SH-SY5Y cells (concentration = 2 uM)
[13] = Protective effect of test compound on SNP-induced cell death in SH-SY5Y cells (concentration = 0.4 uM)
[14] = Protective effect of test compound on Ab25 35-induced cell death in SH-SY5Y cells (concentration = 4 uM)
[15] = Protective effect of test compound on SNP-induced cell death in SH-SY5Y cells (concentration = 10 uM)
[16] = Protective effect of test compound on Ab25 35-induced cell death in SH-SY5Y cells (concentration = 10 uM)
[17] = Protective effect of test compound on hydrogen peroxide-induced cell death in SH-SY5Y cells (concentration = 2 uM)
[18] = Protective effects of test compounds on Ab25 35-induced cell death in SH-SY5Y cells (concentration = 10 uM)

| SMILES | Inhibition [1] [%] | Inhibition [2] [%] | Inhibition [3] [%] | Inhibition [4] [%] | Inhibition [5] [%] | Inhibition [6] | Inhibition [7] | Inhibition [8] [%] | Inhibition [9] [%] | Inhibition [10] [µM] | Inhibition [11] [µM] | Inhibition [12] [µM] | Inhibition [13] [µM] | Inhibition [14] [µM] | Inhibition [15] [µM] | Inhibition [16] [µM] | Inhibition [17] [µM] | Inhibition [18] [µM] |
| --- | --- | --- | --- | --- | --- | --- | --- | --- | --- | --- | --- | --- | --- | --- | --- | --- | --- | --- |
| COC1=CC2OC(c3ccc(O)cc3)=CC(=O)C2C(O)=C1Oc1ccc(-c2cc(=O)c3c(O)cc(O)cc3o2)cc1 (stereo unspecified) | -25 | -16 | -3.5 | 23.9 | 11 | 18% | -0.2% | 68.1 | -14.8 | – | – | – | – | – | – | – | – | – |
| COc1cc(O)c2c(=O)cc(-c3ccc(OC)c(C4=C(O)C=C(O)C5C(=O)C=C(c6ccc(O)cc6)OC45)c3)oc2c1 (stereo unspecified) | 32.4 | – | 11.3 | 12.2 | 43.6 | 29.5 µM | 5.6% | 35.7 | 7.8 | -0.1 | – | – | – | – | – | – | – | – |
| COc1ccc(-c2cc(=O)c3c(O)cc(O)cc3o2)cc1Oc1ccc(-c2cc(=O)c3c(O)cc(O)cc3o2)cc1 | 1.6 | 2.9 | 1.8 | -1.2 | 0.9 | 13% | 14.8% | 12.1 | 0.1 | – | – | – | – | – | – | – | – | – |
| O=C1C=C(c2ccc(O)cc2)OC2C=C(O)C(Oc3ccc(-c4cc(=O)c5c(O)cc(O)cc5o4)cc3)=C(O)C12 (stereo unspecified) | 15 | 2.5 | 7.8 | 19.8 | -19.9 | 8.7% | -10% | 56 | -9.4 | – | – | – | – | – | – | – | – | – |
| COc1ccc(C2=CC(=O)C3C(O)=CC(O)=C(c4cc(-c5cc(=O)c6c(O)cc(O)cc6o5)ccc4OC)C3O2)cc1 (stereo unspecified) | 23.5 | 6.9 | 40.1 | 28.7 | 59.1 | 19.7% | 43.8 µM | 55.1 | 10.5 | – | – | – | – | – | – | – | – | – |
| COc1ccc(-c2cc(=O)c3c(O)cc(O)cc3o2)cc1C1=C(O)C=C(O)C2C(=O)C=C(c3ccc(O)cc3)OC12 (stereo unspecified) | 11 | 2.5 | 25.3 | 30.4 | 1.9 | 9.8% | -7.5% | 62.9 | 4.8 | – | – | – | – | – | – | – | – | – |
| O=C1C=C(c2ccc(O)cc2)OC2C(c3cc(-c4cc(=O)c5c(O)cc(O)cc5o4)ccc3O)=C(O)C=C(O)C12 (stereo unspecified) | – | – | 27 | – | – | – | – | 62 | – | – | 3.6 | 16.4 | 5.2 | 25.4 | 40.5 | 31.8 | 39.9 | – |
| COc1ccc(C2=CC(=O)C3C(O)=CC(O)=C(c4cc(-c5cc(=O)c6c(O)cc(OC)cc6o5)ccc4OC)C3O2)cc1 (stereo unspecified) | 4.6 | 28.5 | 39.5 | 52.1 | 38.1 | 27.1% | – | 69.5 | 8.1 | – | – | – | – | – | – | – | – | 35.1 |
| O=c1cc(-c2ccc(Oc3cc(-c4cc(=O)c5c(O)cc(O)cc5o4)ccc3O)cc2)oc2cc(O)cc(O)c12 [OCHNAFLAVONE] | 9.3 | 10 | -3.6 | -12.1 | -32.1 | -12.7% | -1.9% | -32.7 | 7.7 | – | – | – | – | – | – | – | – | – |
